Assay results reported in patent publication US20240246934A1, “QUINAZOLINE-BASED COMPOUND, COMPOSITION, AND APPLICATION OF QUINAZOLINE-BASED COMPOUND” (BEIJING SCITECH-MQ PHARMACEUTICALS LIMITED, priority 2021, published 2024).
Like-named read-outs stand apart in the source and are kept apart here.

Tests used:
HER2 kinase = molecular target: T1, HER2 kinase (Homo sapiens, UniProt P04626); test: HER2 kinase assay (ULight/PT66 TR-FRET); type: biochemical
T1 construct: purchased Carna Biosciences 08-016
Experimental: (§1) Preparation of compound solution: The assay compound was dissolved in DMSO to form a 10 mM stock solution. Prior to use, the compound was diluted to 0.25 mM in DMSO (100 times the final concentration of the diluent) and then subjected to a 3-fold concentration gradient dilution to obtain a total of 11 concentrations. The solution was diluted with buffer to a diluent with 4× the final concentration when the compound was added.
(§2) HER2 kinase assay: buffer was prepared, and 40 nM 4×Her2 kinase solution, 40 μM 4×ATP solution, and 400 nM 4×ULight™-labeled Ploy GT Peptide substrate solution were prepared using the buffer. After the preparation was completed, the enzyme was mixed with different concentrations of compounds pre-prepared by dilution, and the mixture was left to stand at room temperature for 5 min. Each concentration was performed in duplicate. The corresponding substrate and ATP were added and the mixture was reacted at room temperature for 120 minutes (with negative and positive controls). After completion of the reaction, PT66 detection antibody was added. The mixture was incubated at room temperature for 60 minutes, and then detected by Envision.
(§3) Compound concentrations and corresponding inhibition rates were input into GraphPad Prism for processing to calculate IC50 values.

EGFR^WT kinase = EGFR^WT kinase (Homo sapiens, UniProt P00533); test: EGFR^WT kinase assay (ULight/PT66 TR-FRET); type: biochemical
Experimental: as §1
as §2, with “EGFR^WT kinase assay:” for “HER2 kinase assay:”, “prepared, and 3.48 nM 4×EGFR” for “prepared, and 40 nM 4×Her2”, “3.48 nM 4×EGFR kinase solution,” for “40 nM 4×Her2 kinase solution,”, “kinase solution, 600 μM 4×ATP” for “kinase solution, 40 μM 4×ATP”, “nM 4×ULight™-labeled JAK-1 (Try1023) Peptide substrate” for “nM 4×ULight™-labeled Ploy GT Peptide substrate”
as §3

[1] = molecular target: Ba/F3 HER2 A775_G776insYVMA cells (Homo sapiens, UniProt P04626, DUP772-775, cells depend on it); test: Inhibition of cell proliferation, CTG method, Ba/F3 HER2 A775_G776insYVMA; type: cell-based; settings: 72 hours, read-out: Ba/F3 HER2 A775-G776insYVMA IC50
Description: The present application examined the in vitro anti-proliferative activity of the compounds of the present disclosure against in vitro cultured BT474, NCI-N87, Ba/F3-EGFR-VIII and Ba/F3 HER2 A775_G776insYVMA and Ba/F3 EGFR D770_N771insSVD cell lines by CTG method.
Cell lines: BT474 (from the cell bank of Chinese Academy of Sciences), NCI-N87 (from ATCC), Ba/F3-EGFR-VIII, Ba/F3 HER2 A775_G776insYVMA and Ba/F3 EGFR D770_N771insSVD (all from KYinno Biotechnology (Beijing) Co., Ltd.); all of the above cells were cultured with RPMI1640 medium containing 10% fetal bovine serum, 100 U/mL penicillin, and 100 μg/mL streptomycin in the culture process.
1. The assay compound was dissolved with DMSO to form a stock solution and a gradient dilution was performed, followed by dilution with the corresponding medium to obtain a solution with 5-fold working concentration.
2. Cells in logarithmic growth phase were adjusted to specific cell densities by dilution with culture medium, and 80 μL of cell suspension was added to a 96-well plate, such that plating densities of cells of BT474, NCI-N87, Ba/F3-EGFR-VIII, Ba/F3 HER2 A775_G776insYVMA and Ba/F3 EGFR D770_N771insSVD were all 3000 cells/well. The cells of Ba/F3-EGFR-VIII, Ba/F3 HER2 A775_G776insYVMA and Ba/F3 EGFR D770_N771insSVD were used directly in the next step (treatment with compound), whereas the BT474 and NCI-N87 needed to be cultured overnight in a 37° C., 5% carbon dioxide gas incubator to adhere to the wall, and then treated with compounds.
3. […] The highest concentration of the assayed compound was 10 μM, 4-fold serial dilution, a total of 9 concentrations, and duplicate wells. A control group without compound was also set up.
4. The cells were cultured for another 72 hours, and then cell viability was detected by CTG assay kit. Signal values were read with a multifunctional plate reader (Perkin Elmer). GraphPad Prism software was used to create a dose-response curve and IC50 was calculated.

[2] = Pharmacokinetics in SD rats, single intravenous injection and oral administration; type: in vivo, SD rat; settings: for AUC(0-inf) / AUC(0-t) / Vd / half-life / bioavailability / Cmax / Tmax: SD, rat, whole blood; for bioavailability: PO 10 mg/kg vs IV 3 mg/kg, read-out: F % (bioavailability)
Experimental: In this assay, the pharmacokinetic characteristics of the compounds of the present application were assayed after administration of some of the compounds of the present application to SD rats by single oral administration and intravenous injection. 1. […] The mixture was stirred, vortexed and/or sonicated. Once a solution was obtained, the vehicle was gradually added to a final volume to reach the target concentration. The solution was vortexed, and sonicated to obtain a homogeneous solution. The solution was filtered through a 0.22 μm PVDF membrane. 2. […] The mixture was stirred, vortexed and/or sonicated. Once a solution was obtained, the vehicle was gradually added to a final volume to reach the target concentration. The solution was vortexed, and sonicated to obtain a homogeneous solution. […] Meanwhile, the IV group was not fasted and the PO group was fasted overnight (>12 hrs) and given food 2 hrs after drug administration. All animals had free access to water. The dosing regimen and pharmacokinetic sampling regimen are given in Table 6 and Table 7 below, respectively. […] Rats were administered according to the above regimen, and blood and brain tissue samples were collected and processed at predetermined time points (collection and processing were performed according to conventional methods in the art). […] The supernatant was diluted 2-fold with ultra-pure water, and the samples were analyzed by LC/MS. Pharmacokinetic parameters was calculated using WinNonlin software. The following pharmacokinetic parameters was calculated from the plasma drug concentration-time data: CL (clearance); Vd (apparent volume of distribution); T1/2 (elimination half-life time); Cmax (peak concentration); Tmax (time to peak); AUC (area under plasma drug concentration-time curve); MRT (mean retention time); F % (bioavailability).

[3] = Brain tissue and whole blood concentration in SD rats after oral administration; type: in vivo; settings: rat, PO 10 mg/kg, 2 h after administration
Experimental: In this assay, the pharmacokinetic characteristics of the compounds of the present application were assayed after administration of some of the compounds of the present application to SD rats by single oral administration and intravenous injection.
2. […] The mixture was stirred, vortexed and/or sonicated. Once a solution was obtained, the vehicle was gradually added to a final volume to reach the target concentration. The solution was vortexed, and sonicated to obtain a homogeneous solution.
Meanwhile, the IV group was not fasted and the PO group was fasted overnight (>12 hrs) and given food 2 hrs after drug administration. All animals had free access to water. The dosing regimen and pharmacokinetic sampling regimen are given in Table 6 and Table 7 below, respectively.
Rats were administered according to the above regimen, and blood and brain tissue samples were collected and processed at predetermined time points (collection and processing were performed according to conventional methods in the art).
The supernatant was diluted 2-fold with ultra-pure water, and the samples were analyzed by LC/MS.
Brain tissues were weighed and homogenized by adding 4-fold homogenizing solution (acetonitrile/water=1/1 v/v). […] The supernatant was diluted 2-fold with ultra-pure water, and the samples were analyzed by LC/MS.

[4] = system: Ba/F3 ERBB2 A775_G776insYVMA; test: Efficacy in nude mouse tumor-bearing model of Ba/F3 ERBB2 A775_G776insYVMA; type: in vivo, BALB/c nude mice; settings: 30 mg/kg
Experimental: In this assay, some compounds of the application were orally administered to a nude mouse tumor-bearing model of Ba/F3 ERBB2 A775_G776insYVMA to study the effect of the compounds of the application on tumor growth.
Preparation of the assay compound: an appropriate weight of the compound to be assayed was weighed, and completely dissolved in an appropriate volume of vehicle (DMSO). The mixture was vortexed or sonicated. Then an appropriate amount of Solutol was added and mixed well. Finally, sterilized drinking water was added and the mixture was mixed by stirring or vortexing to obtain a homogeneous solution or suspension.
Method: All the assays were authorized and agreed by the Animal Welfare Committee. Ba/F3 ERBB2 A775_G776insYVMA in a logarithmic growth period was inoculated subcutaneously into the right back of immunodeficient nude mice (BALB/c nude, female, 6-7 weeks of age, body weight 18±2 g) with 4×10^6 cells/rat. After the tumor grew to 150-200 mm^3, the animals were randomly divided into a treatment group and a control group. For the treatment group, a solution of each assay compound was given, and for the control group, a vehicle solution without the assay compound was given. Both of the treatment group and the control group were administered once a day for about 2 weeks. The dose of each assay article was 30 mg/kg (in terms of effective compound concentration), and the assay compounds were all prepared freshly for use. During the assay, the diameter of loaded tumors was measured twice a week, and the mice were weighed at the same time. The tumor volume (TV) was calculated by the formula: TV=½×a×b^2, where a and b denote length and width, respectively. Relative tumor volume (RTV) was calculated based on the measured results by the formula: RTV=Vt/V0, where V0 is the tumor volume measured at grouping and administration and Vt is the tumor volume at each measurement. The evaluation index of antitumor activity was the relative tumor proliferation rate T/C (%) calculated by the formula: T/C (%)=(TRTV/CRTV)×100%, TRTV: RTV of the administration group; CRTV: RTV of the control group. T and C denote the average tumor volume at a certain time point in the administration group and the control group, respectively.

[5] = NA: Exposure was too low to be counted
[6] = PO 10 mg/kg, NA: Exposure was too low to be counted

Sequence of EGFR^WT kinase (P00533 25-1210): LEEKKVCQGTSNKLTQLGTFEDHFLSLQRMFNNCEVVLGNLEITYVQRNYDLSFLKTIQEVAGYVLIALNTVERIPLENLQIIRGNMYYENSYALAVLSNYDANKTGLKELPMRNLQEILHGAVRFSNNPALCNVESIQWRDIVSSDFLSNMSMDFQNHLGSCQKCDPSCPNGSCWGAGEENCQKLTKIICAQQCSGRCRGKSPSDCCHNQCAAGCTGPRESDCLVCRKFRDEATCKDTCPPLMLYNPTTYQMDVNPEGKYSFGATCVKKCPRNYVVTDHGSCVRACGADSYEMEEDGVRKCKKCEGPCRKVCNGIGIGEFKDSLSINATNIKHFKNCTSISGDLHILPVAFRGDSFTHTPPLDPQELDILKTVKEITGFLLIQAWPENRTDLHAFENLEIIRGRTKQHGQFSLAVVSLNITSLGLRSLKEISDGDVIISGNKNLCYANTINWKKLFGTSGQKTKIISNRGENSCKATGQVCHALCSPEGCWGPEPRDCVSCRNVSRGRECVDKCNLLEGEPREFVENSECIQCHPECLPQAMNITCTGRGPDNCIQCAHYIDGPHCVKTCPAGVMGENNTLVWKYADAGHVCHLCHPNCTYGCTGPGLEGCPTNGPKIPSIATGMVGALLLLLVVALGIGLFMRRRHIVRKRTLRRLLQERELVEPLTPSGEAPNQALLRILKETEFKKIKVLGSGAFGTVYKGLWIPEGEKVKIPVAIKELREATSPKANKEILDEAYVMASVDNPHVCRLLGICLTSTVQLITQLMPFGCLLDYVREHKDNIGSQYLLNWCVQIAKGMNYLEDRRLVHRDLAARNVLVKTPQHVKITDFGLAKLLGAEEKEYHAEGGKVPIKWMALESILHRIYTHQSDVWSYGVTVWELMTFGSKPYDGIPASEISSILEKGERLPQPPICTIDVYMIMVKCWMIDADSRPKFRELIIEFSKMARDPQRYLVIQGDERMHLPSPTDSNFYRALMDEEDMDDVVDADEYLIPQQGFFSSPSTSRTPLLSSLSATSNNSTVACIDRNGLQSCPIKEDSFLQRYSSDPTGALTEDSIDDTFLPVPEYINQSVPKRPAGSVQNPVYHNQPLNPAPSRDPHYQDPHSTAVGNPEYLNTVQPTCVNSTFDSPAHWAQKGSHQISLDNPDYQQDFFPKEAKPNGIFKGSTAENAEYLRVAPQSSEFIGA
T1 sequence (P04626 23-1255): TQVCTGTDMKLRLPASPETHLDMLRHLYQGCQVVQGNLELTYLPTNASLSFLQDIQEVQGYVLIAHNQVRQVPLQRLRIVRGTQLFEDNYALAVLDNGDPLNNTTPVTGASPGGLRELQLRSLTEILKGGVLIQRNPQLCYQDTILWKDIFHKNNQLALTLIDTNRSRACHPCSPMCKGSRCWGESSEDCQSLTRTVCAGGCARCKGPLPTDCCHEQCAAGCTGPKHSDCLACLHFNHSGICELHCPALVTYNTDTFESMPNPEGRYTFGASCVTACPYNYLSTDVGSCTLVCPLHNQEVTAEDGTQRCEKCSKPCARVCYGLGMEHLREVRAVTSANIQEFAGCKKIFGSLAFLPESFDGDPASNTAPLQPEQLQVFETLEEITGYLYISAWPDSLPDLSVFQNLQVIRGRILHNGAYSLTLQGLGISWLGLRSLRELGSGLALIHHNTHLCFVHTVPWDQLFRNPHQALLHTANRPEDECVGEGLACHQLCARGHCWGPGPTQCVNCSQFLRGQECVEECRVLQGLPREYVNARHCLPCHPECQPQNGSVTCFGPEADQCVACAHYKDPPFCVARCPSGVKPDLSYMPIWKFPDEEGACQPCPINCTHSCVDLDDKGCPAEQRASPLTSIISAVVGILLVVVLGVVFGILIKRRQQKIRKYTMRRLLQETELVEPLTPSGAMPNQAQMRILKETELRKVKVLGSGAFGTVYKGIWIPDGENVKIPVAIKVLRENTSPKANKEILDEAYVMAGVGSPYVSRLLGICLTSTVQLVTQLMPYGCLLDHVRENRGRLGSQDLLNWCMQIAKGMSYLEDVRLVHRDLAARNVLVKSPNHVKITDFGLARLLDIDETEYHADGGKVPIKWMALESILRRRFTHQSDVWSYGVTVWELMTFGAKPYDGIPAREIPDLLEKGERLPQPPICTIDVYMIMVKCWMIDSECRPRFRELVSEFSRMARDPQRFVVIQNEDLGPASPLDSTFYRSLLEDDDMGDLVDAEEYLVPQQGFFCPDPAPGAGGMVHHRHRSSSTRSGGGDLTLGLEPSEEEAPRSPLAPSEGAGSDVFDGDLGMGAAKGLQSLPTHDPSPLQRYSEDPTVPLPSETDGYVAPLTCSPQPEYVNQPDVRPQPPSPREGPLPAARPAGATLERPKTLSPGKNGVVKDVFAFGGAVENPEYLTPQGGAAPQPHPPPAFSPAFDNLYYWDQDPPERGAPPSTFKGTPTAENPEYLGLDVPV
Sequence of Ba/F3 HER2 A775_G776insYVMA cells (P04626 with tags, fused parts or gaps DUP772-775): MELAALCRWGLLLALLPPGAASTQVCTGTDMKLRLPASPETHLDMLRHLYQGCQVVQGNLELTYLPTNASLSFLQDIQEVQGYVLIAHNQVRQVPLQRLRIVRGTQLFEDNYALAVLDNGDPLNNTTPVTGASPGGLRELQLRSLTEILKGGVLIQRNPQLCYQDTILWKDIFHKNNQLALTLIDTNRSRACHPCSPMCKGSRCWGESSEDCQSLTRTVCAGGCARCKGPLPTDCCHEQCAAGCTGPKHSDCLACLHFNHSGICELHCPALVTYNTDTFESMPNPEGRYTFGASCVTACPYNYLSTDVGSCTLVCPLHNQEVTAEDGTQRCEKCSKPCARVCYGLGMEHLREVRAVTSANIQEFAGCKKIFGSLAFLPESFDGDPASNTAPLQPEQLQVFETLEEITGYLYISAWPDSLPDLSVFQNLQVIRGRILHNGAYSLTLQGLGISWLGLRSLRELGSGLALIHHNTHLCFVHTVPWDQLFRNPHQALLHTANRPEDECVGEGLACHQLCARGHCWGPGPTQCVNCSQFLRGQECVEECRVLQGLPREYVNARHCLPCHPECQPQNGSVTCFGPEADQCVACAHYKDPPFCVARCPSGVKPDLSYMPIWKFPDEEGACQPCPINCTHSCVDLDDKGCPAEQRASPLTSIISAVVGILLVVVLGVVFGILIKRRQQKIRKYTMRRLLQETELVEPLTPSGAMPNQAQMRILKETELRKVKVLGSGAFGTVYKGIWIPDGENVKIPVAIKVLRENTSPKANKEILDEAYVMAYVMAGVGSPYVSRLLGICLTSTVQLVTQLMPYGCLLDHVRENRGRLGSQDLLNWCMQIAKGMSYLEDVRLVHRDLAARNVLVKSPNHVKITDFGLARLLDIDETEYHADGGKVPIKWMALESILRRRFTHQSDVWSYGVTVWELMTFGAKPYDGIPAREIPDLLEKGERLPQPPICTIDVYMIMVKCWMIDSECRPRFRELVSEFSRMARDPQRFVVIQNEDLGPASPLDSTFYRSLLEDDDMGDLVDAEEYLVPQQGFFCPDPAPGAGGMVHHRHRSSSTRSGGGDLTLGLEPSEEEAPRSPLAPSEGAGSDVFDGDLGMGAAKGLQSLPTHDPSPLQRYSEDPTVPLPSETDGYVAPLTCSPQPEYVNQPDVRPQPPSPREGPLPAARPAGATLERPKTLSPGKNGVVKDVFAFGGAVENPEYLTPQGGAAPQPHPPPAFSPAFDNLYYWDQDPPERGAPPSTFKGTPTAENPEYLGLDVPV

Structure (SMILES)	IC50 (HER2 kinase) [nM]	IC50 (EGFR^WT kinase) [nM]	GI50 [1] [nM]	Cl_obs ([2]; IV 3 mg/kg) [mL/min/kg]	AUC(0-inf) ([2]; IV 3 mg/kg) [ng·h/mL]	AUC(0-t) ([2]; IV 3 mg/kg) [ng·h/mL]	Vd ([2]; IV 3 mg/kg) [L/kg]	half-life ([2]; IV 3 mg/kg) [h]	bioavailability [2, 5] [%]	AUC(0-inf) [2, 6] [ng·h/mL]	AUC(0-t) [2, 6] [ng·h/mL]	Cmax [2, 6] [ng/mL]	Tmax [2, 6] [h]	half-life [2, 6] [h]	also measured
COc1c(NC(=O)/C=C/[C@H]2CCCN2C(C)C)ccc2ncnc(Nc3ccc(OCc4ccccn4)c(Cl)c3)c12 [Example 24, (R,E)-N-(4-((3-chloro-4-(pyridin-2-ylmethoxy)phenyl)amino)-5-methoxyquinazolin-6-yl)-3-(1-isopropylpyrrolidin-2-yl)acrylamide]	< 10	100 to 1000	1 to 5	32.2 ± 0.5	1550 ± 23	1510 ± 26	14 ± 1.3	5.01 ± 0.45	25 ± 11.2	1470 ± 655	1260 ± 561	86.3 ± 32.7	5.33 ± 2.89	7.81 ± 3.71	T/C (%) ([4]; QD×14, PO, day 14): 12.4%
CN1CCC[C@H]1/C=C/C(=O)Nc1ccc2ncnc(Nc3ccc(OCc4ccccn4)c(Cl)c3)c2c1 [Control compound 2, reference compound]	–	–	–	84.3 ± 5.1	595 ± 37	565 ± 40	47.5 ± 7.5	6.5 ± 0.78	0.992	23.8	18.7	6.72	0.25	2.39	oral absorption (in words) ([2]; administrated orally): hardly absorbed; concentration at 2 h ([3]; in vivo, whole blood, read-out: Blood drug concentration): 1.14 ng/mL
CN1CCC[C@@H]1/C=C/C(=O)Nc1ccc2ncnc(Nc3ccc(OCc4ccccn4)c(Cl)c3)c2c1OCC(F)F [Example 11, (R,E)-N-(4-((3-chloro-4-(pyridin-2-ylmethoxy)phenyl)amino)-5-(2,2-difluoroethoxy)quinazolin-6-yl)-3-(1-methylpyrrolidin-2-yl)acrylamide]	< 10	< 10	1 to 5	–	–	–	–	–	–	–	–	–	–	–	T/C (%) ([4]; QD×15, PO, day 15): 5.71%

Continued, in another order:

IC50 (HER2 kinase) [nM]	IC50 (EGFR^WT kinase) [nM]	GI50 [1] [nM]	Cl_obs ([2]; IV 3 mg/kg) [mL/min/kg]	AUC(0-inf) ([2]; IV 3 mg/kg) [ng·h/mL]	AUC(0-t) ([2]; IV 3 mg/kg) [ng·h/mL]	Vd ([2]; IV 3 mg/kg) [L/kg]	half-life ([2]; IV 3 mg/kg) [h]	bioavailability [2, 5] [%]	AUC(0-inf) [2, 6] [ng·h/mL]	AUC(0-t) [2, 6] [ng·h/mL]	Cmax [2, 6] [ng/mL]	Tmax [2, 6] [h]	half-life [2, 6] [h]	Structure (SMILES)	also measured
< 10	< 10	1 to 5	52.3 ± 5.7	964 ± 104	953 ± 105	18.7 ± 2.9	4.12 ± 0.22	23.3 ± 7.4	750 ± 238	719 ± 233	53.7 ± 12.4	2	5.42 ± 0.34	CCCOc1c(NC(=O)/C=C/[C@H]2CCCN2C)ccc2ncnc(Nc3ccc(OCc4ccccn4)c(Cl)c3)c12 [Example 13, (R,E)-N-(4-((3-chloro-4-(pyridin-2-ylmethoxy)phenyl)amino)-5-propoxyquinazolin-6-yl)-3-(1-methylpyrrolidin-2-yl)acrylamide]	concentration at 2 h ([3]; whole blood, read-out: Blood drug concentration): 273 ng/mL; Kp at 2 h ([3]; brain / whole blood, read-out: Brain tissue/blood ratio): 0.465; concentration at 2 h ([3]; brain, NA: Exposure was too low to be counted, read-out: Brain tissue concentration): 127 ng/g
< 10	< 10	< 1	–	–	–	–	–	–	–	–	–	–	–	[2H]C([2H])([2H])Oc1c(NC(=O)/C=C/[C@H]2CCCN2C)ccc2ncnc(Nc3ccc(OCc4ccccn4)c(Cl)c3)c12 [Example 33, (R,E)-N-(4-((3-chloro-4-(pyridin-2-ylmethoxy)phenyl)amino)-5-(methoxy-d3)quinazolin-6-yl)-3-(1-methylpyrrolidin-2-yl)acrylamide]	T/C (%) ([4]; QD×11, PO, day 11): 12.4%
